Test results taken from article PMC4947017 (ACS chemical biology, 2016).

How the values were obtained:
[1] = molecular target: T1, neurotensin receptor 1 (NTR1) (Homo sapiens, UniProt P30989); experiment: […]-NT radioligand competitive displacement in NTR1-U2OS membranes; format: binding
[2] = molecular target: T1, neurotensin receptor 1 (NTR1); experiment: […]-NT radioligand binding to NTR1-U2OS membranes

T1 sequence (P30989 whole entry): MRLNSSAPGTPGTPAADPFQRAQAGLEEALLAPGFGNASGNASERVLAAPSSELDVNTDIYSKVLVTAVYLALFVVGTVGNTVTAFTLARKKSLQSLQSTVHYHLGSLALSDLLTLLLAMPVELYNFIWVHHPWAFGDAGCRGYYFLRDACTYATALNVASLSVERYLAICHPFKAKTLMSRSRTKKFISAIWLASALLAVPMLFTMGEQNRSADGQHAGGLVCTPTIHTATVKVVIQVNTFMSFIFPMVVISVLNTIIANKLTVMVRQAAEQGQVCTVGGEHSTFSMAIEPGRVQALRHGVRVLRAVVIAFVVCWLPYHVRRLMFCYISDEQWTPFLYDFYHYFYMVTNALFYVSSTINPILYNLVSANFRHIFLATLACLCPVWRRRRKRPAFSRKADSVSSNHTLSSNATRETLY

Structure (SMILES) | IC50 [1] | EC50 [2]
COc1cccc(OC)c1-c1nc(C(=O)N[C@@H](CC(C)C)C(=O)O)cn1-c1ccnc2cc(Cl)ccc12 [ML301] | -4.0 Log(IC50) | 
COc1cc2nc(C3CC3)nc(N3CCN(c4ccccc4OC)CC3)c2cc1OC [ML314] |  | 316 nM
